# Literature values in article PMC2233745 (The Journal of General Physiology, 2001).
# Tested on: high Km PDE
# Conditions: high Km PDE in GH3 and GH4C1 cells; ref Gautvik et al. 1982; cited from earlier work
smiles,measurement,value
Nc1ncnc2c1ncn2[C@@H]1O[C@@H]2COP(=O)(O)O[C@H]2[C@H]1O [cAMP],Km,28.6 µM
